In patent US4410516A, “1-N(αHydroxy-ω-aminoalkanoyl) derivatives of 5,3',4'-trideoxy- or 5,3', 4'-trideoxy-6'-N- methyl- or 5, 3', 4',6"-tetradeoxykannamyci B and production thereof” (Zaidan Hojin Biseibutsu Kagaku Kenkyu Kai, priority 1981, dated 1983) one finds MIC and antibacterial activity data, which are given here for three compounds.

The subject of test [1] is Bacillus subtilis PCI 219. Put plainly: Minimum inhibitory concentration, serial dilution on nutrient agar. Format: cell-based. The note with it: PCI219, 37° C., 18 hours incubation.
Test [2] deals with Escherichia coli K-12 R 388. The test is described as above. The note with it: K12R388, 18 h. The class given is cell-based.
For test [3], the system named is Pseudomonas aeruginosa H11. Described as above. Format: cell-based.
A further test deals with Bacillus anthracis. Kind of test: microbe, parasite or virus in culture. Format: cell-based. The following applies: 18 h.
In another test the test system is Escherichia coli NIHJ. Put plainly: Minimum inhibitory concentration, serial dilution on nutrient agar. Format: cell-based.
Test [4] deals with Bacillus cereus ATCC 10702. The test is described as above. Format: cell-based.
The test system of test [5] is Escherichia coli K-12 LA 290 R55. The description is as above. Format: cell-based. The note with it: K12LA290R55, 18 h.
Another test deals with Providencia 2991. The test is described as above. The class given is cell-based. The following applies: 37° C., 18 hours incubation.
Test [6] concerns Staphylococcus aureus 209P. Described as above. Format: cell-based. The note with it: 37° C., 18 hours incubation.
The next test relates to Shigella sonnei JS11746. Described as above. The class given is cell-based. The following applies: 37° C., 18 hours incubation. An excerpt: (§1) The minimum inhibitory concentration (mcg/ml) of 1-N-[(S)-4-amino-2-hydroxybutyryl]-5,3',4'-trideoxykanamycin B (abbreviated as AHB-trideoxyKMB), 1-N-[(RS)-3-amino-2-hydroxypropionyl]-5,3',4'-trideoxykanamycin B (abbreviated as AHP-trideoxy-KMB) and 1-N-[(S)-4-amino-2-hydroxybutyryl]-5,3',4',6"-tetradeoxykanamycin B (abbreviated as AHB-tetradeoxyKMB) of the formula (II) according to this invention as well as of the new compound 5,3',4',6"-tetradeoxykanamycin B (abbreviated as tetradeoxyKMB) of the formula (III) according to this invention against various microorganisms were determined according to serial dilution method on a nutrient agar medium at 37° C., the estimation being made after 18 hours incubation. For comparison purpose, the minimum inhibitory concentrations of habekacin were also determined in the same manner as stated above.
(§2) The minimum inhibitory concentrations (mcg/ml) of 1-N-[(S)-4-amino-2-hydroxybutyryl]-5,3',4'-trideoxy-6'-N-methylkanamycin B (abbreviated as AHB-trideoxyMKMB), 1-N-[(RS)-3-amino-2-hydroxypropionyl]-5,3',4'-trideoxy-6'-N-methylkanamycin B (abbreviated as AHP-trideoxyMKMB) and 1-N-[(S)-5-amino-2-hydroxyvaleryl]-5,3',4'-trideoxy-6'-N-methylkanamycin B (abbreviated as AHV-trideoxyMKMB) of the formula (IV) according to this invention as well as of the new compound 5,3',4'-trideoxy-6'-N-methylkanamycin B (abbreviated as trideoxyMKMB) of the formula (V) according to this invention against various microorganisms were determined according to serial dilution method on a nutrient agar medium at 37° C., the estimation being made after 18 hours incubation. For comparison purpose, the minimum inhibitory concentrations of 1-N-[(S)-4-amino-2-hydroxybutyryl]-3',4'-dideoxykanamycin B (ie. habekacin) were also determined in the same manner as stated above.

Test [7] has as its system Escherichia coli K-12 C 600R/35. Described as above. Format: cell-based. The following applies: K12C600R/35, 37° C., 18 hours incubation.
From the text: as §1, §2

Test [8] has as its system Escherichia coli K-12 J5R 11-2. The test is described as above. Format: cell-based. The following applies: K12J5R112, 37° C., 18 hours incubation.
From the text: as §1, §2

In test [9] the test system is Escherichia coli K-12 ML 1630. The test is described as above. The class given is cell-based. The note with it: K12ML1630, 37° C., 18 hours incubation.
From the text: as §1, §2

In test [10] the test system is Shigella flexneri 4b JS11811. Described as above. The class given is cell-based. The note with it: 4BJS11811, 37° C., 18 hours incubation.
From the text: as §1, §2

Another test relates to Escherichia coli W677. The test is described as above. Format: cell-based.
Test [11] concerns Bacillus subtilis NRRL B-558. The test is described as above. The class given is cell-based. The following applies: NRRLB558, 37° C., 18 hours incubation.
Test [12] has as its system Staphylococcus epidermidis 109. The test is described as above. Format: cell-based. The following applies: Staphylococcus epidermidis, 109; nutrient agar, 37° C., 18 hours incubation; read-out: MIC.
The test system of test [13] is Pseudomonas aeruginosa ROS134/PU21. The test is described as above. The following applies: ROS134/PU21, 18 h. Format: cell-based.
The test system of test [14] is Pseudomonas aeruginosa No. 12. Described as above. Format: cell-based.
The test system of the next test is Salmonella typhi T-63. The test is described as above. Format: cell-based. The following applies: Salmonella enterica, 18 h.
The subject of test [15] is Escherichia coli K-12 ML 1410 R81. The description is as above. Format: cell-based. The note with it: 18 h.
Another test has as its system bacteria. The following applies: in words, earlier work / other filings; cited from earlier work.
Where [16] appears, read: nutrient agar, 37° C., 18 hours incubation, read-out: MIC.
[17] abbreviates: ATCC10702, nutrient agar, 37° C., 18 hours incubation, read-out: MIC.
Where [18] appears, read: W677, nutrient agar, 37° C., 18 hours incubation, read-out: MIC.
[19] abbreviates: NO.12, nutrient agar, 37° C., 18 hours incubation, read-out: MIC.

In brackets after ≈: the same amount, converted by molar mass. Like-named read-outs stand apart in the source and are kept apart here.

Consider `NCC(O)C(=O)N[C@@H]1C[C@H](N)[C@@H](O[C@H]2O[C@H](CN)CC[C@H]2N)C[C@H]1O[C@H]1O[C@H](CO)[C@@H](O)[C@H](N)[C@H]1O` (stereo partly drawn) [AHP-trideoxyKMB, 1-N-[(RS)-3-amino-2-hydroxypropionyl]-5,3',4'-trideoxykanamycin B], for which the MIC was under 0.2 µg/mL in test [1]; 1.56 µg/mL (≈ 2.99 µM) in test [2]; 6.25 µg/mL (≈ 12 µM) in test [3] (H11, 18 h); under 0.2 µg/mL against Bacillus anthracis; 1.56 µg/mL (≈ 2.99 µM) in the test with Escherichia coli NIHJ (setting [16]); 0.78 µg/mL (≈ 1.49 µM) in test [4] (setting [17]). The MIC in test [5] is 3.13 µg/mL (≈ 5.99 µM); with Providencia 2991, 25 µg/mL (≈ 47.8 µM); in [6], under 0.2 µg/mL; against Shigella sonnei JS11746, 6.25 µg/mL (≈ 12 µM); in test [7], 1.56 µg/mL (≈ 2.99 µM); in test [8], 1.56 µg/mL (≈ 2.99 µM). Further, the MIC is 3.13 µg/mL (≈ 5.99 µM) in test [9]; 6.25 µg/mL (≈ 12 µM) in [10]; 1.56 µg/mL (≈ 2.99 µM) in the test on Escherichia coli W677 (setting [18]); under 0.2 µg/mL in [11]; 0.78 µg/mL (≈ 1.49 µM) in test [12]; over 100 µg/mL in test [13]. Besides, the values for the MIC (in [14] (setting [19]); in the test on Salmonella typhi T-63) were 3.13 µg/mL (≈ 5.99 µM) and 50 µg/mL (≈ 95.7 µM), respectively.

As to `CNC[C@@H]1CC[C@@H](N)[C@@H](O[C@H]2C[C@@H](O[C@H]3O[C@H](CO)[C@@H](O)[C@H](N)[C@H]3O)[C@H](NC(=O)C(O)CN)C[C@@H]2N)O1` (stereo partly drawn) [AHP-trideoxyMKMB, 1-N-[(RS)-3-amino-2-hydroxypropionyl]-5,3',4'-trideoxy-6'-N-methylkanamycin B], the MIC is 0.39 µg/mL (≈ 0.727 µM) in [1]; 1.56 µg/mL (≈ 2.91 µM) in test [2]; 12.5 µg/mL (≈ 23.3 µM) in test [3] (H11, nutrient agar, 37° C., 18 hours incubation, read-out: MIC); under 0.2 µg/mL with Bacillus anthracis; 3.13 µg/mL (≈ 5.83 µM) against Escherichia coli NIHJ (18 h); 1.56 µg/mL (≈ 2.91 µM) in [4] (setting [17]). For the same compound, the MIC in test [5] amounted to 6.25 µg/mL (≈ 11.6 µM); in the test on Providencia 2991, 50 µg/mL (≈ 93.2 µM); in test [6], 0.39 µg/mL (≈ 0.727 µM); in the test on Shigella sonnei JS11746, 6.25 µg/mL (≈ 11.6 µM); in test [7], 1.56 µg/mL (≈ 2.91 µM); in test [8], 3.13 µg/mL (≈ 5.83 µM). For the same compound, the MIC is 3.13 µg/mL (≈ 5.83 µM) in [9]; 3.13 µg/mL (≈ 5.83 µM) in test [10]; 3.13 µg/mL (≈ 5.83 µM) with Escherichia coli W677 (W677, 18 h); 3.13 µg/mL (≈ 5.83 µM) in test [15]; 0.39 µg/mL (≈ 0.727 µM) in test [11]; under 0.2 µg/mL in [12]. In addition, the MIC was found to be 50 µg/mL (≈ 93.2 µM) in test [13]; 3.13 µg/mL (≈ 5.83 µM) in test [14] (NO.12, 18 h); 3.13 µg/mL (≈ 5.83 µM) with Salmonella typhi T-63.

As to `NCC[C@H](O)C(=O)N[C@@H]1C[C@H](N)[C@@H](O[C@H]2O[C@H](CN)CC[C@H]2N)[C@H](O)[C@H]1O[C@H]1O[C@H](CO)[C@@H](O)[C@H](N)[C@H]1O` [Habekacin, 1-N-[(S)-4-amino-2-hydroxybutyryl]-3',4'-dideoxykanamycin B, reference compound], the MIC in test [1] was under 0.2 µg/mL; in test [2], 1.56 µg/mL (≈ 2.82 µM); in [3] (H11, 18 h), 12.5 µg/mL (≈ 22.6 µM); in the test with Bacillus anthracis, under 0.2 µg/mL; in the test with Escherichia coli NIHJ (setting [16]), 3.13 µg/mL (≈ 5.66 µM); in test [4] (ATCC10702, 18 h), 1.56 µg/mL (≈ 2.82 µM). Further, the MIC in test [5] came to 6.25 µg/mL (≈ 11.3 µM); in the test with Providencia 2991 it was 50 µg/mL (≈ 90.5 µM); in [6], 0.39 µg/mL (≈ 0.706 µM); in the test on Shigella sonnei JS11746, 6.25 µg/mL (≈ 11.3 µM); in test [7] it was 1.56 µg/mL (≈ 2.82 µM); in test [8], 1.56 µg/mL (≈ 2.82 µM). In addition, the MIC in test [9] was 3.13 µg/mL (≈ 5.66 µM); in test [10] it was 6.25 µg/mL (≈ 11.3 µM); in the test with Escherichia coli W677 (setting [18]) it was 3.13 µg/mL (≈ 5.66 µM); in test [11], under 0.2 µg/mL; in [12], 0.78 µg/mL (≈ 1.41 µM); in test [13], over 100 µg/mL. In addition, the MIC came out at 3.13 µg/mL (≈ 5.66 µM) in test [14] (setting [19]) and 1.56 µg/mL (≈ 2.82 µM) against Salmonella typhi T-63. Moreover, in the test on bacteria, the antibacterial activity result was “effective against dibekacin-resistant bacteria”.
